Experimental data from patent publication US20250066368A1, “DNA POLYMERASE THETA INHIBITOR AND USE THEREOF” (SHANGHAI APEIRON THERAPEUTICS COMPANY LIMITED, priority 2021, published 2025).

These compounds were tested against Polθ polymerase (Homo sapiens (Human), UniProt O75417) (assay: Polθ polymerase activity assay (PicoGreen method)). Settings: His-TEV-SUMO-tagged Polθ protein (amino acids 1792-2590), PicoGreen fluorescence, in vitro.
Chain of Polθ polymerase (O75417 1792-2590): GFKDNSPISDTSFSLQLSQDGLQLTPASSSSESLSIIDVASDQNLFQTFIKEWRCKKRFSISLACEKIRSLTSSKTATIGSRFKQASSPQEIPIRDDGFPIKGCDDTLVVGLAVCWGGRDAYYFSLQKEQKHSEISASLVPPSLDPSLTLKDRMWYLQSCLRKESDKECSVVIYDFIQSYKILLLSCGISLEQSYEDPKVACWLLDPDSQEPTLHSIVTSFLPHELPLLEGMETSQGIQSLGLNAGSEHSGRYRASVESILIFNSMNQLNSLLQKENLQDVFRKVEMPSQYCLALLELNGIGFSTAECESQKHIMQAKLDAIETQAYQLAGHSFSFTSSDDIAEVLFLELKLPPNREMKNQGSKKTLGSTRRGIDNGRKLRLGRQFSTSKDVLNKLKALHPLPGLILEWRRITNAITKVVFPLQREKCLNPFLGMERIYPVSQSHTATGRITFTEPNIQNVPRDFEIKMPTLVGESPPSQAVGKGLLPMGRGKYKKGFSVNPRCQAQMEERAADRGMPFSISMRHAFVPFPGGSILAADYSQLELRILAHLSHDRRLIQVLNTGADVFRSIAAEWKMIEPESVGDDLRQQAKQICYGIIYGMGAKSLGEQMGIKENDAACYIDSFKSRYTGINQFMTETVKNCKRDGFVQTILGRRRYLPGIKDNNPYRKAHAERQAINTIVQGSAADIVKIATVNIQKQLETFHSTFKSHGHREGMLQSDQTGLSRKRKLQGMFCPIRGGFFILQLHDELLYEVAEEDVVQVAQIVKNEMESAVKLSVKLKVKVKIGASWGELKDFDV
Assay type: biochemical
Description: The ability of compounds to inhibit Pol 0 polymerase activity was determined by the PicoGreen method in vitro. The His-TEV-SUMO-tagged Polθ protein (amino acids 1792-2590) expressed in E. coli was purified and stored in aliquots at -80° C. […] Test compounds were diluted in 100% DMSO and diluted three-fold into 10 concentration points in a dilution plate (Greiner-781280) using Bravo (Agilent) according to concentration requirements. The compounds diluted in DMSO were then diluted 20-fold in the assay buffer using Bravo. Further, 2 μl of diluted compounds were transferred to the assay plate (Corning-4512) using Bravo. The purified Pol 0 enzyme and primers ((primer strand: […] ID NO: 1):(template strand: […] A mixture containing 10 mM EDTA, 25 mM Tris pH 7.5, and a 1:200 diluted PicoGreen dye (Invitrogen-[…] the reaction. After 30 min of reaction at room temperature in the dark, fluorescence values were read on EnVision 2105 (PerkinElmer) using the Ex480 nm Em520 nm program, and the raw data was analyzed using XLfit to generate IC50 values. The results are shown in the table below.
For `CN(C(=O)[C@@H]1CNC(=O)N1c1cc(C(F)(F)F)c2c(n1)C(=O)CC2)c1ccc(F)c(Cl)c1F` [Compound 13, (S)—N-(3-chloro-2,4-difluorophenyl)-N-methyl-2-oxo-3-(7-oxo-4-(trifluoromethyl)-6,7-dihydro-5H-cyclopenta[b]pyridin-2-yl)imidazolidine-4-carboxamide], the IC50 was ≤ 50 nM.
`CN(C(=O)[C@@H]1CNC(=O)N1c1cc(C(F)(F)F)c2sccc2n1)c1ccc(F)c(Cl)c1F` [Compound 4, (S)—N-(3-chloro-2,4-difluorophenyl)-N-methyl-2-oxo-3-(7-(trifluoromethyl)thieno[3,2-b]pyridin-5-yl)imidazoline-4-carboxamide] was tested, and the IC50 was 50 to 500 nM.
With `CN(C(=O)[C@@H]1CNC(=O)N1c1cc(C(F)(F)F)c2ccccc2n1)c1ccc(F)c(Cl)c1F` [Compound 17, (S)—N-(3-chloro-2,4-difluorophenyl)-N-methyl-2-oxo-3-(4-(trifluoromethyl)quinolin-2-yl)imidazolidine-4-carboxamide] the IC50 was 50 to 500 nM.
In the case of `CN(C(=O)[C@@H]1CNC(=O)N1c1cc(C2CC2)c2ncsc2n1)c1ccc(F)c(Cl)c1F` [Compound 31, [(4S)-3-(7-cyclopropyl (1,3-thiazolo[4,5-e]pyridin-5-yl))-2-oxoimidazolidin-4-yl]-N-(3-chloro-2,4-difluorophenyl)-N-methylformamide], the IC50 is reported as ≤ 50 nM.
`CN(C(=O)[C@@H]1CNC(=O)N1c1cc(C(F)(F)F)c2c(n1)CCC2=O)c1ccc(F)c(Cl)c1F` [Compound 3, (S)—N-(3-chloro-2,4-difluorophenyl)-N-methyl-2-oxo-3-(5-oxo-4-(trifluoromethyl)-6,7-dihydro-5H-cyclopenta[b]pyridin-2-yl)imidazolidine-4-carboxamide] was tested, and the IC50 was > 5000 nM.
With `CN(C(=O)[C@@H]1CNC(=O)N1c1nccn2ccnc12)c1ccc(F)c(Cl)c1F` [Compound 41, (S)—N-(3-chloro-2,4-difluorophenyl)-3-(imidazo[1,2-a]pyrazin-8-yl)-N-methyl-2-oxoimidazolidine-4-carboxamide] the IC50 was > 5000 nM.
In the case of `CN(C(=O)[C@@H]1CNC(=O)N1c1cc(C(F)(F)F)c2c(n1)CCC2)c1ccc(F)c(Cl)c1F` [Compound 1, (S)—N-(3-chloro-2,4-difluorophenyl)-N-methyl-2-oxo-3-(4-(trifluoromethyl)-6,7-dihydro-5H-cyclopenta[b]pyridin-2-yl)imidazolidine-4-carboxamide], the IC50 is reported as ≤ 50 nM.
Work on `CN(C(=O)[C@@H]1CNC(=O)N1c1cc(C(F)(F)F)c2c(n1)CC[C@]2(C)O)c1ccc(F)c(Cl)c1F` [Compound 8a] yielded an IC50 of 500 to 5000 nM.
`CN(C(=O)[C@@H]1CNC(=O)N1c1cc(C(F)(F)F)c2c(n1)C(F)(F)CC2)c1ccc(F)c(Cl)c1F` [Compound 12, (S)—N-(3-chloro-2,4-difluorophenyl)-3-(7,7-difluoro-4-(trifluoromethyl)-6,7-dihydro-5H-cyclopenta[b]pyridin-2-yl)-N-methyl-2-oxoimidazolidine-4-carboxamide] was tested, and the IC50 was ≤ 50 nM.
In the case of `CN(C(=O)[C@@H]1CNC(=O)N1c1cc(C(F)(F)F)c2ccsc2n1)c1ccc(F)c(Cl)c1F` [Compound 14, (S)—N-(3-chloro-2,4-difluorophenyl)-N-methyl-2-oxo-3-(4-(trifluoromethyl)thieno[2,3-b]pyridin-6-yl)imidazolidine-4-carboxamide], the IC50 is reported as ≤ 50 nM.
In the case of `CN(C(=O)[C@@H]1CNC(=O)N1c1cc(C(F)(F)F)c2cc[se]c2n1)c1ccc(F)c(Cl)c1F` [Compound 33], the IC50 is reported as ≤ 50 nM.
`CN(C(=O)[C@@H]1CNC(=O)N1c1cc(SC(F)(F)F)c2ncsc2n1)c1ccc(F)c(Cl)c1F` [Compound 44, (S)—N-(3-chloro-2,4-difluorophenyl)-N-methyl-2-oxo-3-(7-((trifluoromethyl)thio)thiazolo[5,4-b]pyridin-5-yl)imidazolidine-4-carboxamide] gave an IC50 of 50 to 500 nM.
`CN(C(=O)[C@@H]1CNC(=O)N1c1ccc2c(n1)CCC2)c1ccc(F)c(Cl)c1F` [Compound 2, (S)—N-(3-chloro-2,4-difluorophenyl)-3-(6,7-dihydro-5H-cyclopenta[b]pyridin-2-yl)-N-methyl-2-oxoimidazolidine-4-carboxamide] showed an IC50 of 500 to 5000 nM.
`CN(C(=O)[C@@H]1CNC(=O)N1c1cc(C(F)(F)F)c2ccoc2n1)c1ccc(F)c(Cl)c1F` [Compound 15, (S)—N-(3-chloro-2,4-difluorophenyl)-N-methyl-2-oxo-3-(4-(trifluoromethyl)furo[2,3-b]pyridin-6-yl)imidazolidine-4-carboxamide] gave an IC50 of 50 to 500 nM.
`CN(C(=O)[C@@H]1CNC(=O)N1c1cc(C(F)(F)F)c2c(n1)CCC2(F)F)c1ccc(F)c(Cl)c1F` [Compound 11, (S)—N-(3-chloro-2,4-difluorophenyl)-3-(5,5-difluoro-4-(trifluoromethyl)-6,7-dihydro-5H-cyclopentadienyl[b]pyridin-2-yl)-N-methyl-2-oxoimidazolidine-4-carboxamide] gave an IC50 of 50 to 500 nM.
With `CN(C(=O)[C@@H]1CNC(=O)N1c1cc(C(F)(F)F)c2c(n1)CC=C2)c1ccc(F)c(Cl)c1F` (single isomer, unassigned) [Compound 9a] the IC50 was ≤ 50 nM.
Work on `CN(C(=O)[C@@H]1CNC(=O)N1c1cc(C(F)(F)F)c2ccn(C)c2n1)c1ccc(F)c(Cl)c1F` [Compound 18, (S)—N-(3-chloro-2,4-difluorophenyl)-N-methyl-3-(1-methyl-4-(trifluoromethyl)-1H-pyrrolo[2,3-b]pyridin-6-yl)-2-oxoimidazolidine-4-carboxamide] yielded an IC50 of 50 to 500 nM.
For `CN(C(=O)[C@@H]1CNC(=O)N1c1cc(C(F)(F)F)c2c(n1)CCCC2)c1ccc(F)c(Cl)c1F` [Compound 5, (S)—N-(3-chloro-2,4-difluorophenyl)-N-methyl-2-oxo-3-(4-(trifluoromethyl)-5,6,7,8-tetrahydroquinolin-2-yl)imidazolidine-4-carboxamide], the IC50 was 500 to 5000 nM.
In the case of `CN(C(=O)[C@@H]1CNC(=O)N1c1cc(C(F)(F)F)c2c(n1)CC=C2)c1ccc(F)c(Cl)c1F` (single isomer, unassigned) [Compound 9b], the IC50 is reported as ≤ 50 nM.
In the case of `CN(C(=O)[C@@H]1CNC(=O)N1c1cc(C(F)(F)F)c2cccn2n1)c1ccc(F)c(Cl)c1F` [Compound 27, (S)—N-(3-chloro-2,4-difluorophenyl)-N-methyl-2-oxo-3-(4-(trifluoromethyl)pyrrolo[1,2-b]pyridazin-2-yl)imidazolidine-4-carboxamide], the IC50 is reported as ≤ 50 nM.
With `O=C1OC[C@@H](c2nc(F)cn2-c2ccc(F)c(Cl)c2)N1c1cc(C(F)(F)F)c2ccsc2n1` [Compound 30, (R)-4-(1-(3-chloro-4-fluorophenyl)-4-fluoro-1H-imidazol-2-yl)-3-(4-(trifluoromethyl)thieno[2,3-b]pyridin-6-yl)oxazolidin-2-one] the IC50 was ≤ 50 nM.
For `CN(C(=O)[C@@H]1CNC(=O)N1c1cc(C(F)(F)F)c2c(ncn2C)n1)c1ccc(F)c(Cl)c1F` [Compound 10, (S)—N-(3-chloro-2,4-difluorophenyl)-N-methyl-3-(1-methyl-7-(trifluoromethyl)-1H-imidazo[4,5-b]pyridin-5-yl)-2-oxoimidazolidine-4-carboxamide], the IC50 was > 5000 nM.
For `CN(C(=O)[C@@H]1CNC(=O)N1c1cc(C(F)(F)F)n2cccc2n1)c1ccc(F)c(Cl)c1F` [Compound 22, (S)—N-(3-chloro-2,4-difluorophenyl)-N-methyl-2-oxo-3-(4-(trifluoromethyl)pyrrolo[1,2-a]pyrimidin-2-yl)imidazolidine-4-carboxamide], the IC50 was ≤ 50 nM.
`CSc1cc(N2C(=O)NC[C@H]2C(=O)N(C)c2ccc(F)c(Cl)c2F)nc2scnc12` [Compound 43, (S)—N-(3-chloro-2,4-difluorophenyl)-N-methyl-3-(7-(methylthio)thiazolo[5,4-b]pyridin-5-yl)-2-oxoimidazolidine-4-carboxamide] was tested, and the IC50 was 50 to 500 nM.
`CN(C(=O)[C@@H]1CNC(=O)N1c1cc(C(F)(F)F)c2c(n1)OCC2)c1ccc(F)c(Cl)c1F` [Compound 20, (S)—N-(3-chloro-2,4-difluorophenyl)-N-methyl-2-oxo-3-(4-(trifluoromethyl)-2,3-dihydrofuro[2,3-b]pyridin-6-yl)imidazolidine-4-carboxamide] was tested, and the IC50 was 50 to 500 nM.
With `CN(C(=O)[C@@H]1CNC(=O)N1c1cc(C(F)(F)F)c2c(n1)CC[C@H]2O)c1ccc(F)c(Cl)c1F` [Compound 6a] the IC50 was 500 to 5000 nM.
